System: MCF-7 breast cancer cells
Test: Microarray gene expression analysis (Agilent whole human genome 4 x 44K; compound vs DMSO, LIMMA log2 fold change)
Type: cell-based
Conditions: Apoptosis genes

Compound: Cn1ncc2c(N3CCOCC3)nc(-c3cccc(O)c3)nc21 [ETP-45658]
- KALRN log2FC (Gene 8997): 0.091
- SOCS3 log2FC (Gene 9021): -1.264
- BRSK2 log2FC (Gene 9024): -0.150
- UBE2M log2FC (Gene 9040): -0.487
- SART1 log2FC (Gene 9092): -0.304
- DNAJA3 log2FC (Gene 9093): 0.296
- RABEP1 log2FC (Gene 9135): 0.616
- ARHGEF2 log2FC (Gene 9181): -0.734
- DEDD log2FC (Gene 9191): -0.182
- AURKB log2FC (Gene 9212): -0.212
- FAIM3 log2FC (Gene 9214): -0.667
- DLG5 log2FC (Gene 9231): -0.344
- PNMA1 log2FC (Gene 9240): 0.386
- NOG log2FC (Gene 9241): -0.420
- CRLF1 log2FC (Gene 9244): -0.116
- STK17B log2FC (Gene 9262): 0.460
- STK17A log2FC (Gene 9263): 0.274
- BCL7C log2FC (Gene 9274): -0.273
- TAOK2 log2FC (Gene 9344): -0.736
- SLIT2 log2FC (Gene 9353): 0.124
- SLC9A3R1 log2FC (Gene 9368): -0.593
- TJP2 log2FC (Gene 9414): 0.142
- NTN1 log2FC (Gene 9423): -0.272
- ITM2B log2FC (Gene 9445): 0.364
- AIM2 log2FC (Gene 9447): -0.111
- LY86 log2FC (Gene 9450): -0.441
- EIF2AK3 log2FC (Gene 9451): 0.631
- HAND2 log2FC (Gene 9464): -0.617
- ATG5 log2FC (Gene 9474): -0.569
- ROCK2 log2FC (Gene 9475): 0.291
- MAPK8IP1 log2FC (Gene 9479): -0.208
- SLC25A27 log2FC (Gene 9481): 0.161
- PSMF1 log2FC (Gene 9491): -0.383
- LITAF log2FC (Gene 9516): -0.463
- EEF1E1 log2FC (Gene 9521): 0.192
- BAG4 log2FC (Gene 9530): 0.066
- BAG3 log2FC (Gene 9531): -0.998
- EI24 log2FC (Gene 9538): -0.507
- BCAR1 log2FC (Gene 9564): -0.597
- BRE log2FC (Gene 9577): -0.322
- RNF7 log2FC (Gene 9616): -0.220
- TRAF4 log2FC (Gene 9618): -0.910
- AATK log2FC (Gene 9625): 1.732
- IKBKE log2FC (Gene 9641): -0.592
- PPM1F log2FC (Gene 9647): -0.513
- RAPGEF2 log2FC (Gene 9693): 0.863
- ESPL1 log2FC (Gene 9700): 0.453
- HERPUD1 log2FC (Gene 9709): 0.217
- SLK log2FC (Gene 9748): 0.938
- BCLAF1 log2FC (Gene 9774): 0.733
- KIAA0141 log2FC (Gene 9812): 0.422
- RB1CC1 log2FC (Gene 9821): 1.457
- ARHGEF11 log2FC (Gene 9826): -0.194
- ARHGEF17 log2FC (Gene 9828): 0.130
- MELK log2FC (Gene 9833): 0.433
- PSMD6 log2FC (Gene 9861): 0.300
- ARNT2 log2FC (Gene 9915): -0.108
- THOC1 log2FC (Gene 9984): 0.606
- CASP8AP2 log2FC (Gene 9994): 0.813
- SRA1 log2FC (Gene 10011): -0.924
- PDCD6IP log2FC (Gene 10015): 0.516
- PDCD6 log2FC (Gene 10016): -0.540
- BCL2L11 log2FC (Gene 10018): 0.145
- PARP2 log2FC (Gene 10038): 0.419
- DNAJB6 log2FC (Gene 10049): 0.317
- DNM1L log2FC (Gene 10059): 0.674
- PDCD7 log2FC (Gene 10081): 0.102
- PPIF log2FC (Gene 10105): -1.006
- FEM1B log2FC (Gene 10116): -0.258
- BCAP31 log2FC (Gene 10134): -0.393
- RBM5 log2FC (Gene 10181): 0.716
- RNF41 log2FC (Gene 10193): 0.235
- PSME3 log2FC (Gene 10197): -1.314
- DHRS2 log2FC (Gene 10202): 0.711
- TOPORS log2FC (Gene 10210): 0.700
- PSMD14 log2FC (Gene 10213): 0.447
- SPRY2 log2FC (Gene 10253): -1.064
- NET1 log2FC (Gene 10276): 0.571
- UBE4B log2FC (Gene 10277): -0.652
- SAP18 log2FC (Gene 10284): 0.262
- TRAIP log2FC (Gene 10293): 0.639
- MAEA log2FC (Gene 10296): -0.219
- PAK4 log2FC (Gene 10298): -0.601
- RTN3 log2FC (Gene 10313): -0.201
- CITED2 log2FC (Gene 10370): 2.261
- SEMA3A log2FC (Gene 10371): 0.054
- DLC1 log2FC (Gene 10395): -0.918
- GNB2L1 log2FC (Gene 10399): -0.052
- YAP1 log2FC (Gene 10413): 0.283
- CFDP1 log2FC (Gene 10428): 0.559
- C1D log2FC (Gene 10438): 0.287
- ACAA2 log2FC (Gene 10449): 0.222
- VAV3 log2FC (Gene 10451): 2.242
- STK25 log2FC (Gene 10494): 0.126
- SEMA4D log2FC (Gene 10507): 0.201
- MYBBP1A log2FC (Gene 10514): -0.538
- CIB1 log2FC (Gene 10519): -0.090
- ATG7 log2FC (Gene 10533): -0.393
- HTATIP2 log2FC (Gene 10553): 0.241
- ERN2 log2FC (Gene 10595): -0.829
- RBCK1 log2FC (Gene 10616): -0.413
- STAMBP log2FC (Gene 10617): 0.425
- IVNS1ABP log2FC (Gene 10625): 0.124
- TXNIP log2FC (Gene 10628): 2.131
- RRAGA log2FC (Gene 10670): -0.331
- PNMA2 log2FC (Gene 10687): -0.069
- CHL1 log2FC (Gene 10752): 0.057
- NES log2FC (Gene 10763): -0.458
- PLK2 log2FC (Gene 10769): -0.887
- ZMYND11 log2FC (Gene 10771): 0.411
- NEK6 log2FC (Gene 10783): -0.620
- NCKAP1 log2FC (Gene 10787): 0.702
- ZNF268 log2FC (Gene 10795): 0.304
- PPP1R13L log2FC (Gene 10848): 0.207
- LILRB1 log2FC (Gene 10859): -0.164
- MRPS30 log2FC (Gene 10884): 0.391
- PROKR1 log2FC (Gene 10887): -0.235
- PPARGC1A log2FC (Gene 10891): 0.117
- MALT1 log2FC (Gene 10892): -0.183
- JTB log2FC (Gene 10899): -0.124
- BLCAP log2FC (Gene 10904): -0.662
- EDAR log2FC (Gene 10913): -0.358
- RNPS1 log2FC (Gene 10921): -0.273
- FASTK log2FC (Gene 10922): -0.423
- PRDX3 log2FC (Gene 10935): 0.630
- MLLT11 log2FC (Gene 10962): -0.777
- YWHAQ log2FC (Gene 10971): 0.450
- IL24 log2FC (Gene 11009): -0.211
- RIPK3 log2FC (Gene 11035): 0.042
- PIM2 log2FC (Gene 11040): -0.863
- DIDO1 log2FC (Gene 11083): -0.773
- FAF1 log2FC (Gene 11124): 0.204
- CAPN10 log2FC (Gene 11132): -0.095
- NISCH log2FC (Gene 11188): 0.948
- CHEK2 log2FC (Gene 11200): 0.312
- AKAP13 log2FC (Gene 11214): -0.384
- DDX20 log2FC (Gene 11218): 0.500
- PDCD10 log2FC (Gene 11235): 0.541
- GABARAP log2FC (Gene 11337): 0.197
- ATF5 log2FC (Gene 22809): -1.275
- PHLDA1 log2FC (Gene 22822): -2.095
- CARD8 log2FC (Gene 22900): 0.190
- SNW1 log2FC (Gene 22938): 0.686
- TRIM32 log2FC (Gene 22954): -0.374
- ACIN1 log2FC (Gene 22985): -0.352
- TRIM35 log2FC (Gene 23087): 0.473
- KIF1B log2FC (Gene 23095): 0.166
- PSME4 log2FC (Gene 23198): 0.174
- ARHGEF9 log2FC (Gene 23229): 0.258
- PACS2 log2FC (Gene 23241): -0.307
- MCF2L log2FC (Gene 23263): 0.118
- TRIM2 log2FC (Gene 23321): 1.078
- ARHGEF12 log2FC (Gene 23365): 0.173
- PPP1R13B log2FC (Gene 23368): 0.098
- NCSTN log2FC (Gene 23385): 0.216
- ADNP log2FC (Gene 23394): 0.193
- SIRT1 log2FC (Gene 23411): 1.263

Reference: paper PMC4303209, “A novel phosphatidylinositol 3-kinase (PI3K) inhibitor directs a potent FOXO-dependent, p53-independent cell cycle arrest phenotype characterized by the differential induction of a subset of FOXO-regulated genes” (Breast Cancer Research : BCR, 2014)
